Test: xn = mol fraction of the nth substance listed
Settings: 101 kPa, Liquid; for viscosity: Falling or rolling sphere viscometry; for mass density: Vibrating tube method

CCCCn1cc[n+](C)c1C.F[B-](F)(F)F [1-butyl-2,3-dimethylimidazolium tetrafluoroborate] + CC#N
Settings	mass density [kg/m3]	viscosity [mPa·s]
298.15 K, x1 = 0.1118	919.74	1.045
298.15 K, x1 = 0.1536	957.71	–
298.15 K, x1 = 0.2247	1008.5	2.637
298.15 K, x1 = 0.3784	1079.62	8.933
298.15 K, x1 = 0.4601	1104.79	–
298.15 K, x1 = 0.5515	1127.21	32.3
298.15 K, x1 = 0.666	1149.45	67.72
298.15 K, x1 = 0.7581	1163.71	143.9
298.15 K, x1 = 0.8423	1174.52	241.4
298.15 K, x1 = 1	1193.19	650
303.15 K, x1 = 0.1118	915.06	0.982
303.15 K, x1 = 0.1536	953.22	–
303.15 K, x1 = 0.2247	1004.26	2.438
303.15 K, x1 = 0.3784	1075.69	7.746
303.15 K, x1 = 0.4601	1100.98	–
303.15 K, x1 = 0.5515	1123.51	26.37
303.15 K, x1 = 0.666	1145.88	52.92
303.15 K, x1 = 0.7581	1160.23	108.2
303.15 K, x1 = 0.8423	1171.09	176.3
303.15 K, x1 = 1	1189.8	447
313.15 K, x1 = 0.1118	905.7	0.873
313.15 K, x1 = 0.1536	944.25	–
313.15 K, x1 = 0.2247	995.79	2.071
313.15 K, x1 = 0.3784	1067.89	5.997
313.15 K, x1 = 0.4601	1093.41	–
313.15 K, x1 = 0.5515	1116.15	18.33
313.15 K, x1 = 0.666	1138.75	34.34
313.15 K, x1 = 0.7581	1153.24	65.14
313.15 K, x1 = 0.8423	1164.22	102.2
313.15 K, x1 = 1	1183.02	232.9
323.15 K, x1 = 0.1118	896.31	0.783
323.15 K, x1 = 0.1536	935.27	–
323.15 K, x1 = 0.2247	987.34	1.781
323.15 K, x1 = 0.3784	1060.12	4.784
323.15 K, x1 = 0.4601	1085.88	–
323.15 K, x1 = 0.5515	1108.85	13.36
323.15 K, x1 = 0.666	1131.67	23.63
323.15 K, x1 = 0.7581	1146.32	42.26
323.15 K, x1 = 0.8423	1157.4	63.15
323.15 K, x1 = 1	1176.38	132.8
333.15 K, x1 = 0.1118	886.87	0.714
333.15 K, x1 = 0.1536	926.27	–
333.15 K, x1 = 0.2247	978.89	1.551
333.15 K, x1 = 0.3784	1052.37	3.914
333.15 K, x1 = 0.4601	1078.37	–
333.15 K, x1 = 0.5515	1101.56	10.11
333.15 K, x1 = 0.666	1124.62	17.06
333.15 K, x1 = 0.7581	1139.41	28.89
333.15 K, x1 = 0.8423	1150.59	41.76
333.15 K, x1 = 1	1169.82	81.53
343.15 K, x1 = 0.1118	877.39	0.572
343.15 K, x1 = 0.1536	917.25	–
343.15 K, x1 = 0.2247	970.44	1.369
343.15 K, x1 = 0.3784	1044.64	3.264
343.15 K, x1 = 0.4601	1070.89	–
343.15 K, x1 = 0.5515	1094.31	7.897
343.15 K, x1 = 0.666	1117.6	12.79
343.15 K, x1 = 0.7581	1132.51	20.7
343.15 K, x1 = 0.8423	1143.79	30
343.15 K, x1 = 1	1163.26	53.99

CCCCn1cc[n+](C)c1C.F[B-](F)(F)F [1-butyl-2,3-dimethylimidazolium tetrafluoroborate] + C[S+](C)[O-]
Settings	mass density [kg/m3]	viscosity [mPa·s]
298.15 K, x1 = 0.138	1128.27	5.197
298.15 K, x1 = 0.2292	1142.83	9.384
298.15 K, x1 = 0.3151	1153.4	16.2
298.15 K, x1 = 0.4079	1162.44	28.31
298.15 K, x1 = 0.5334	1172.17	60.17
298.15 K, x1 = 0.6374	1178.33	108.3
298.15 K, x1 = 0.7004	1181.74	160.1
298.15 K, x1 = 0.7952	1185.94	–
298.15 K, x1 = 0.8785	1189.03	370.4
298.15 K, x1 = 1	1193.19	650
303.15 K, x1 = 0.138	1123.85	4.594
303.15 K, x1 = 0.2292	1138.65	8.077
303.15 K, x1 = 0.3151	1149.37	13.58
303.15 K, x1 = 0.4079	1158.58	23.32
303.15 K, x1 = 0.5334	1168.48	47.09
303.15 K, x1 = 0.6374	1174.75	82.19
303.15 K, x1 = 0.7004	1178.22	119.4
303.15 K, x1 = 0.7952	1182.45	–
303.15 K, x1 = 0.8785	1185.53	263.2
303.15 K, x1 = 1	1189.8	447
313.15 K, x1 = 0.138	1115.07	3.654
313.15 K, x1 = 0.2292	1130.35	6.142
313.15 K, x1 = 0.3151	1141.4	9.873
313.15 K, x1 = 0.4079	1150.89	15.99
313.15 K, x1 = 0.5334	1161.12	30.51
313.15 K, x1 = 0.6374	1167.61	50.32
313.15 K, x1 = 0.7004	1171.2	70.58
313.15 K, x1 = 0.7952	1175.55	–
313.15 K, x1 = 0.8785	1178.68	144.9
313.15 K, x1 = 1	1183.02	232.9
323.15 K, x1 = 0.138	1106.3	2.981
323.15 K, x1 = 0.2292	1122.07	4.831
323.15 K, x1 = 0.3151	1133.47	7.481
323.15 K, x1 = 0.4079	1143.24	11.64
323.15 K, x1 = 0.5334	1153.77	20.96
323.15 K, x1 = 0.6374	1160.48	33.05
323.15 K, x1 = 0.7004	1164.2	44.88
323.15 K, x1 = 0.7952	1168.71	–
323.15 K, x1 = 0.8785	1171.96	86.55
323.15 K, x1 = 1	1176.38	132.8
333.15 K, x1 = 0.138	1097.56	2.49
333.15 K, x1 = 0.2292	1113.83	3.906
333.15 K, x1 = 0.3151	1125.56	5.851
333.15 K, x1 = 0.4079	1135.62	8.806
333.15 K, x1 = 0.5334	1146.46	15.18
333.15 K, x1 = 0.6374	1153.38	22.96
333.15 K, x1 = 0.7004	1157.22	30.3
333.15 K, x1 = 0.7952	1161.88	–
333.15 K, x1 = 0.8785	1165.23	55.64
333.15 K, x1 = 1	1169.82	81.53
343.15 K, x1 = 0.138	1088.84	2.115
343.15 K, x1 = 0.2292	1105.61	3.23
343.15 K, x1 = 0.3151	1117.7	4.708
343.15 K, x1 = 0.4079	1128.03	6.868
343.15 K, x1 = 0.5334	1139.19	11.46
343.15 K, x1 = 0.6374	1146.31	16.7
343.15 K, x1 = 0.7004	1150.26	21.53
343.15 K, x1 = 0.7952	1155.06	–
343.15 K, x1 = 0.8785	1158.52	37.74
343.15 K, x1 = 1	1163.26	53.99
353.15 K, x1 = 0.138	1080.12	1.826
353.15 K, x1 = 0.2292	1097.41	2.724
353.15 K, x1 = 0.3151	1109.86	3.873
353.15 K, x1 = 0.4079	1120.49	5.501
353.15 K, x1 = 0.5334	1131.96	8.897
353.15 K, x1 = 0.6374	1139.27	12.73
353.15 K, x1 = 0.7004	1143.34	16.03
353.15 K, x1 = 0.7952	1148.27	–
353.15 K, x1 = 0.8785	1151.83	26.75
353.15 K, x1 = 1	1156.71	37.13

Reference: the NIST ThermoML archive (doi:10.1021/je3007474)
